“Also recorded” adds a separate entry of the source. Read-outs that look alike come from different tables or passages of the source.

The target of data set [1] is T1, PDI (Homo sapiens, UniProt P07237).
T1 construct: FLAG; made in house; host or cells: Escherichia coli Origami B (DE3)
Description: Di-eosin-GSSG disulfide reductase assay, PDI. The format is biochemical.
Description: (§1) Di-eosin-GSSG disulfide reductase assay. The probe di-eosin glutathione disulfide, di-eosin-GSSG, was prepared by incubating 100 μM of GSSG with 1 mM of eosin isothiocyanate in 100 mM potassium phosphate containing 2 mM EDTA (pH 7.4), at 25° C. overnight in the dark. The mixture was passed down a PD-10 column and different fractions were collected. A fold change of fluorescence (Ex: 520 nm, Em: 550 nm) was calculated using samples subjected to either vehicle or 20 mM of DTT. Any fraction with a fold change >5 was kept. Using a stock of 10 mM eosin isothiocyanate, a standard curve was generated and concentration of samples were determined accordingly. Di-eosin-GSSG cleavage of purified thiol isomerases and PDI domains was monitored in a 96-well fluorescence plate format. PDI, CGXC-PDI variants, ERp5, ERp57, ERp46 and PDI domains were assayed at 50 nM in the presence or absence of the indicated small molecules. The assay included a thiol isomerase assay buffer (39 mM KH2PO4, 61 mM K2HPO4, 2 mM EDTA, 5 M DTT, pH 7.4) and 150 nM of the di-eosin-GSSG probe. The increase in fluorescence was determined for 60 min by excitation at 520 nm and emission at 550 nm in a Synergy Biotek 4. The reduction of 150 nM di-eosin-GSSG by 5 μM DTT in the presence or absence of mentioned small molecule or proteins served as a negative control.

The target in data set [2] is T1, PDI. Description: Insulin reductase assay. The class given is biochemical. The settings on record: 20 μM.
Description: Insulin reductase assay. Insulin was prepared by mixing 12.5 mg/mL insulin in 50 mM Tris-HCl, pH 8. 1 M HCl was carefully added to drop the pH to 2.0 for solution clarification. Once the solution clarifies, 1 M NaOH was added to rapidly adjust the pH back to 8.0. The solution was then adjusted to 1.5 mM (10 mg/mL) with 50 mM Tris-HCl, aliquoted and stored in −20° C. until use. 2× concentrations of thiol isomerases were prepared (final concentrations as indicated in each assay) and mixed with 1.2 mM DTT (final 0.3 mM) and 0.4 mM insulin (final 0.1 mM) using a thiol isomerase activity assay buffer. Insulin precipitation from enzyme-mediated reduction was assayed in 96-well clear bottom plates at 650 nm absorption.
Data set [3] deals with PDI domain fragments (a, a′, ab, abb′, b′xa′). Description: Di-eosin-GSSG assay on isolated PDI domain fragments. To be noted: for inhibition of isolated a′ domain cleavage of di-eosin-GSSG: 20 μM. The class given is biochemical.
Description: as §1
The test system of data set [4] is recombinant PDI, ERp57, and ERp5. Description: Di-eosin-GSSG assay, thiol isomerases at 20 μM compound. The class given is biochemical. The settings on record: 15 minute incubation.
The test system of data set [5] is thrombus formation in carotid artery after FeCl3. Description: Ferric chloride thrombosis model. The class given is in vivo, C57Bl/6J mice. To be noted: punicalagin by oral gavage. As for the experimental part:
Wildtype C57Bl/6J mice were exposed to 100 μg/g punicalagin via oral gavage (n=5) or vehicle (n=7). The carotid artery was surgically isolated, exposed to 10% w/v FeCl3 for 3 min, and visualized by fluorescence microscopy. Time to occlusion was monitored.
Ferric chloride thrombosis model. Thrombus formation induced by ferric chloride was assayed as previously described in Li W, et al. Circ. Res. 115:997-1006, 2014. The mice were treated by oral gavage with 100 μg/g punicalagin or vehicle control for 90 min prior to injury. Before the 90 min time point, the mice were anesthetized with a cocktail of 125 mg/kg ketamine and 12 mg/kg xylazine. The left jugular vein was cannulated for infusion of a DyLight 649 conjugated antibody against GPIbβ (Emfret Analytics; 0.1 μg/g) and 50 mg/kg pentobarbital for maintenance anesthetics. […] Thrombi formation was observed using a 10×0.3 NA water immersion objective mounted to an AX-70 fluorescence microscope (Olympus Japan) equipped with a CCD camera (ORCA Flash 4.0, Hamamatsu Photonics, Japan). Data were analyzed by Slidebook 6.0 (Intelligent Imaging Innovations).
Punicalagin inhibits thrombus formation. […] The ability of orally delivered punicalagin to inhibit thrombus formation following vascular injury was assessed. […] Vessel patency was visualized by fluorescence microscopy using anti-GPIbβ antibody to monitor for vascular occlusion. […]

The next data set addresses SARS-CoV-2 M^pro (Severe acute respiratory syndrome coronavirus 2, UniProt P0DTD1).
In the next data set the test system is SARS-CoV-2. The settings on record: cited from earlier work.
In data set [6] the test system is bleeding following tail clip. The experiment in a line: Tail clip assay of hemostasis. The settings on record: punicalagin ingestion.
Data set [7] concerns the target T1, PDI. The experiment in a line: SDS-PAGE molecular weight shift (alkylation of PDI free thiols). The format is biochemical. The text has this: FIG. 5 is an image of gel showing detection of PDI free thiol by the labeling of acetamido maleimidylstilbene disulfonic acid (AMS), which shifts the protein to a higher apparent molecular weight.
4-acetomido-4′-maleimidylstilbene-2,2′ disulfonic acid (AMS), which shifts the mass of the protein by 500 Da for every cysteine alkylated, was used as a positive control. […] N-ethylmaleimide (NEM) was used for a control experiment because covalent alkylation of the free thiols will expectedly prevent PDI activity (FIG. 6A).

Another data set concerns the target T2, ERp5 (Homo sapiens, UniProt Q15084).
T2 construct: recombinant His-tagged full-length ERp5, ERp72; His-tag; made in house; host or cells: Escherichia coli Origami B (DE3)
T2 sequence (Q15084 20-440): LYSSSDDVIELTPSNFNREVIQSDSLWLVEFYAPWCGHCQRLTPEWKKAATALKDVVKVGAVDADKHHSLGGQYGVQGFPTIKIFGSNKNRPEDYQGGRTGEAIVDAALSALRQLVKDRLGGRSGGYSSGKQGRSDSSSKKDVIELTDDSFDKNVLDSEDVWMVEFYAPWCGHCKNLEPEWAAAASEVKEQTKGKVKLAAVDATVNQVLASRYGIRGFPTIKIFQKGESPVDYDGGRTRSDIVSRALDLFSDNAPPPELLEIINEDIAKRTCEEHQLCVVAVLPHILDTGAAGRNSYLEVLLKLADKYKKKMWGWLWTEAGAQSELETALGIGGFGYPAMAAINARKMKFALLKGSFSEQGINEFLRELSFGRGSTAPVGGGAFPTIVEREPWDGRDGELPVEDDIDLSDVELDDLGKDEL
The experiment in a line: Di-eosin-GSSG disulfide reductase assay, ERp5. The class given is biochemical. To be noted: 20 μM. The text has this:
Recombinant protein purification. Recombinant ‘double-tagged’ (streptavidin-binding protein-tagged and FLAG-tagged) full-length PDI, ERp57, recombinant His-tagged full-length ERp5, ERp72, PDI domain fragments, and PDI mutant were cloned into a pET-15b vector at the NdeI and BamHI sites and transformed into Escherichia coli Origami B (DE3) cells (EMD Chemicals). The recombinant proteins were expressed and isolated by affinity chromatography with complete His-Tag purification resin (Roche Applied Science) or Pierce High-Capacity Streptavidin Agarose beads and purified on a Superdex 200 (GE Healthcare).
Di-eosin-GSSG disulfide reductase assay. […] Any fraction with a fold change >5 was kept.

Setting [8] is: Table 1, IC50 curves on PDI activity (FIGS. 13B-E, 17A-E), read-out: Relative PDI inhibition.

T1 sequence (P07237 18-508): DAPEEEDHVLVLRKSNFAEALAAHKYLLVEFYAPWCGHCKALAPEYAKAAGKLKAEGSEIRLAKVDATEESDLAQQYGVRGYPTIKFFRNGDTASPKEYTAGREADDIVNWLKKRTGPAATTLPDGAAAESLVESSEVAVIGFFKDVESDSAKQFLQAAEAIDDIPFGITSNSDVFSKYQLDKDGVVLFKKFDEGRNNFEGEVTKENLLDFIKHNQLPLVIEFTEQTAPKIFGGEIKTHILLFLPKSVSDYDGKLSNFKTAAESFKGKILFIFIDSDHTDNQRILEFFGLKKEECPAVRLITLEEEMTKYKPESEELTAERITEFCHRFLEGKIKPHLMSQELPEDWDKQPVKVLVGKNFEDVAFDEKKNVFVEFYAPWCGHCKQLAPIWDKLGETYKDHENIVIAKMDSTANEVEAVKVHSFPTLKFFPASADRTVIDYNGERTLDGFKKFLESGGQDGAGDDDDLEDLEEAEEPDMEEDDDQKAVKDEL

For the compound `O=C1O[C@H]2[C@@H]3OC(=O)c4cc(O)c(O)c(O)c4-c4c(O)c(O)c5oc(=O)c6c(c(O)c(O)c7oc(=O)c4c5c76)-c4c(cc(O)c(O)c4O)C(=O)OC[C@H]3OC(O)[C@@H]2OC(=O)c2cc(O)c(O)c(O)c2-c2c1cc(O)c(O)c2O` (mixture of isomers) [Punicalagin], the IC50 at PDI [1] (setting [8]) was 19 µM; on SARS-CoV-2 M^pro (read-out: SARS-CoV-2 M^pro inhibition; literature values (Table 2); cited from earlier work), 5.7 µM. The “inhibition of the ability of PDI to reduce insulin” value against PDI [2] is “inhibited the ability of PDI to reduce insulin”. Besides, the “inhibition of isolated a′ domain cleavage of di-eosin-GSSG” value (from here on “inhibition … of di-eosin-GSSG”) in data set [3] is reported as “inhibited the ability of isolated a′ domain to cleave di-eosin-GSSG”. For the same compound, the results for the “inhibition of thiol isomerases (PDI, ERp57, ERp5) in words” value (“inhibition of thiol isomerases” below) in [4] and in data set [4] (listed as punicalagin) were “strong inhibition of thiol isomerases” and “strong thiol isomerase inhibition”, respectively. Further, the “vessels that never occluded” value in data set [5] (10% FeCl3 for 3 min) was about 50%. The “time for occlusion of vessels that clotted” value in data set [5] (compared to controls) is “consistently prolonged”. In the data set on SARS-CoV-2, the “Inhibition of viral replication (cell system in which shown)” value (“Inhibition of viral replication” below) was 293T-hACE2 and NIC-H460. In the data set with SARS-CoV-2, the “inhibition of SARS-CoV-2 / infection (in words)” value is “inhibits both SARS-CoV-2 M^pro and omicron variants of SARS-CoV-2 infection”. In addition, the “cessation of bleeding, Kaplan Meier curves” value in data set [6] is “prolonged bleeding”. In data set [6] (1 mm diameter tail transection), this compound had a total bleeding time of 110 s.

Consider `CC(=O)Nc1ccc(C=Cc2ccc(N3C(=O)C=CC3=O)cc2S(=O)(=O)O)c(S(=O)(=O)O)c1` [AMS, 4-acetomido-4′-maleimidylstilbene-2,2′ disulfonic acid, reference compound], for which the “shift in molecular weight of PDI in SDS polyacrylamide gel” value at PDI [7] was “induced a slight increase in molecular mass”.

Turning to `O=C(O[C@@H]1Cc2c(O)cc(O)cc2O[C@H]1c1ccc(O)c(O)c1)c1cc(O)c(O)c(O)c1` [Catechin 3-gallate], the IC50 on PDI [1] (setting [8]) is over 20 µM. On ERp5, the “activity against ERp5 (in words)” value is “had activity against ERp5”. In addition, the “inhibition of thiol isomerases” value in data set [4] is recorded as “some inhibition, particularly of ERp5”.

Take `Oc1cc(O)c2c(c1)O[C@H](c1cc(O)c(O)c(O)c1)[C@H](O)C2` [EGC, epigallocatechin]: the “inhibition of PDI (in words)” value at PDI [1] was “did not inhibit PDI; also recorded: inactive compounds against PDI”. Besides, the IC50 at PDI [1] (setting [8]) was over 500 µM. Further, the “inhibition of thiol isomerases” value in data set [4] is listed as “relatively little activity”.

`O=C(O[C@@H]1Cc2c(O)cc(O)cc2O[C@@H]1c1cc(O)c(O)c(O)c1)c1cc(O)c(O)c(O)c1` [EGCG, epigallocatechin gallate]: on PDI [1], the “inhibition of PDI (in words)” value is “did not inhibit PDI; also recorded: inactive compounds against PDI”. At PDI [1] (setting [8]), the IC50 stood at 243 µM. In addition, in data set [4], the “inhibition of thiol isomerases” value is recorded as “relatively little activity”.

For `O=C(O)c1cc(O)c(O)c(O)c1` [Gallic Acid, 3,4,5-trihydroxybenzoic acid], on PDI [1], the IC50 was over 500 µM and the “inhibition of PDI (in words)” value is “inactive compounds against PDI”. Further, the “inhibition of PDI (in words)” value against PDI [1] (listed as gallate) is given as “failed to inhibit PDI”. Also, in data set [4], the “inhibition of thiol isomerases” value is recorded as “Neither pinocembrin, gallic acid nor glucose showed substantial activity against thiol isomerases”.

In the case of `O=C1C[C@@H](c2ccccc2)Oc2cc(O)cc(O)c21` [Pinocembrin], the “inhibition of PDI (in words)” value against PDI [1] is recorded as “failed to inhibit PDI”. Moreover, on PDI [1] (setting [8]), the IC50 is over 500 µM. The “inhibition of thiol isomerases” value in data set [4] was “no activity”.

Regarding `O=C(O[C@@H]1Cc2c(O)cc(O)cc2O[C@@H]1c1cc(=O)c(O)c2c(O)c(O)cc([C@H]3Oc4cc(O)cc(O)c4C[C@H]3O)c2c1)c1cc(O)c(O)c(O)c1` [Theaflavin 3-gallate], the IC50 at PDI [1] (setting [8]) was 3.4 µM; on SARS-CoV-2 M^pro (literature values (Table 2); read-out: SARS-CoV-2 M^pro inhibition; cited from earlier work), 18.5 µM. At PDI [2], the “inhibition of the ability of PDI to reduce insulin” value is reported as “inhibited the ability of PDI to reduce insulin”. The “inhibition … of di-eosin-GSSG” value in data set [3] is reported as “inhibited the ability of isolated a′ domain to cleave di-eosin-GSSG”. Further, the “inhibition of thiol isomerases” value in [4] is on record as “strong inhibition of all three thiol isomerases”. Also, in the data set with SARS-CoV-2 (Vero cell assay), the “reduction of viral counts” value was 75%. In addition, in the data set with SARS-CoV-2, the “Inhibition of viral replication” value is “Vero Cells”.

`O=c1c(O)cc([C@H]2Oc3cc(O)cc(O)c3C[C@H]2O)cc2c([C@H]3Oc4cc(O)cc(O)c4C[C@H]3O)cc(O)c(O)c12` [Theaflavin]: the “inhibition of PDI (in words)” value on PDI [1] is “failed to inhibit PDI; also recorded: inactive compounds against PDI”. The IC50 on PDI [1] (setting [8]) was over 500 µM. Further, the “inhibition of thiol isomerases” value in [4] was “poor inhibition”.

Regarding `O=c1cc(-c2ccc(O)cc2)oc2cc(O)cc(O)c12` [apigenin, reference compound], the “inhibition of SARS-CoV-2 / infection (in words)” value in the data set on SARS-CoV-2 is reported as “inhibitors of SARS-CoV-2”.

Catechin: the “activity against ERp5 (in words)” value at ERp5 is given as “had activity against ERp5”.

For the compound “theaflavin 3-3′-digallate [Theaflavin 3,3′-gallate]”, the “inhibition … of di-eosin-GSSG” value in data set [3] is listed as “inhibited the ability of isolated a′ domain to cleave di-eosin-GSSG”. In [3] (a, ab, b′xa′, abb′ fragments, PGHG at 10 μM), the “inhibition of isolated PDI fragments” value was “inhibited isolated a and a′ fragments as well as ab, b′xa′ and abb′x fragments”. Further, the “inhibition of thiol isomerases” value in data set [4] is “strong inhibition of all three thiol isomerases”. The “Inhibition of viral replication” value with SARS-CoV-2 is “VeroE6/TMPRSS2”.
